From patent US12215093B2, “Bicyclic carboxamides and methods of use thereof” (Tempest Therapeutics, Inc., priority 2018, dated 2025)

How the values were obtained:
EP2 = EP2 (Homo sapiens, UniProt P43116); assay: cell-based;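 further: functional calcium flux assay in stably transfected HEK293 cells expressing EP2 coupled via a promiscuous G protein, clytin luminescence read as area under the curve, 30 min compound preincubation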
EP4 = target: T1, EP4 (Homo sapiens, UniProt P35408); assay: Functional calcium flux assay, EP4; type: cell-based; settings: stably transfected HEK293 cells; PGE2 10 nM; read-out: EP4 Ca2+-flux assay IC50
T1 construct: host or cells: stably transfected HEK293 cells co-expressing a promiscuous G protein and a clytin variant
T1 sequence (P35408 whole entry): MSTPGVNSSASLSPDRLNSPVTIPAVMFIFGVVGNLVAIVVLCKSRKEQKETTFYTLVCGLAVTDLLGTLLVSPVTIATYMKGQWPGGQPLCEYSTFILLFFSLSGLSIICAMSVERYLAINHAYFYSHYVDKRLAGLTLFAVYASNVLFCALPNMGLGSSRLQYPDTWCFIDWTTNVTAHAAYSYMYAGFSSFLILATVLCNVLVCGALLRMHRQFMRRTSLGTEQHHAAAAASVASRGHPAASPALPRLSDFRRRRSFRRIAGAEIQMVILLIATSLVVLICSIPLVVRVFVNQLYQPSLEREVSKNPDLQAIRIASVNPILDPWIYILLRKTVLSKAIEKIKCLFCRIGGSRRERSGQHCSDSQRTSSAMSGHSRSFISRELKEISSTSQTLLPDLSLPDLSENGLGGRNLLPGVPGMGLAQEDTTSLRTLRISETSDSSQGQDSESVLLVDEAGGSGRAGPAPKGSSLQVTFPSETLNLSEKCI

Chain of EP2 (P43116 whole entry): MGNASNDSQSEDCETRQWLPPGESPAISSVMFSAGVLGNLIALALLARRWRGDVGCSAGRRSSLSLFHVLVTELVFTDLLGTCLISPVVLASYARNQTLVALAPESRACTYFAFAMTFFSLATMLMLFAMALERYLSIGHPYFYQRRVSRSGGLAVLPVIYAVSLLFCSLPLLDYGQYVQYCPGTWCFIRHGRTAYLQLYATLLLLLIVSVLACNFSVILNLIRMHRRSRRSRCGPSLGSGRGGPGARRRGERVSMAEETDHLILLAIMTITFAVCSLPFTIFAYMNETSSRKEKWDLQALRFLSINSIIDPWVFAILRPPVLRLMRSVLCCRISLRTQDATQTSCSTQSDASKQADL

Row | Compound | IC50 (EP2) [nM] | IC50 (EP4) [nM]
1 | COc1cc(C#N)cc(-c2ccc(Cn3ccc4c(F)ccc(C(=O)NC5CC6(C5)CC(C(=O)O)C6)c43)cc2)c1 (racemic) [Example 20, (racemic)-6-(1-((3′-cyano-5′-methoxy-[1,1′-biphenyl]-4-yl)methyl)-4-fluoro-1H-indole-7-carboxamido)spiro[3.3]heptane-2-carboxylic acid] | < 25 | < 1
2 | O=C(NC1CC2(C1)CC(C(=O)O)C2)c1ccc(F)c2ccn(Cc3ccc(-c4ccc(OC5COC5)c(Cl)c4)cc3)c12 (racemic) [Example 21, (racemic)-6-(1-((3′-Chloro-4′-(oxetan-3-yloxy)-[1,1′-biphenyl]-4-yl)methyl)-4-fluoro-1H-indole-7-carboxamido)spiro[3.3]heptane-2-carboxylic acid] | 51 | 1
3 | O=C(NC1CC2(C1)CC(C(=O)O)C2)c1ccc(F)c2ccn(Cc3ccc(-c4ccc(OC5COC5)cc4)cc3)c12 (racemic) [Example 23, (racemic)-6-(4-Fluoro-1-((4′-(oxetan-3-yloxy)-[1,1′-biphenyl]-4-yl)methyl)-1H-indole-7-carboxamido)spiro[3.3]heptane-2-carboxylic acid] | 60 | 1
4 | CC(C)(C)c1ccc(Cn2ccc3c(C#N)ccc(C(=O)NC4CC5(C4)CC(C(=O)O)C5)c32)cc1 (racemic) [Example 27, (racemic)-6-(1-(4-(tert-Butyl)benzyl)-4-cyano-1H-indole-7-carboxamido)spiro[3.3]heptane-2-carboxylic acid] | 45 | < 1
5 | O=C(NC1CC2(C1)CC(C(=O)O)C2)c1ccc(F)c2ccn(Cc3ccc(N4CCOCC4)cc3)c12 (racemic) [Example 31, (racemic)-6-(4-Fluoro-1-(4-morpholinobenzyl)-1H-indole-7-carboxamido)spiro[3.3]heptane-2-carboxylic acid] | 44 | < 1
6 | O=C(NC1CC2(C1)CC(C(=O)O)C2)c1cccc2cnn(Cc3ccc(OC(F)(F)F)cc3)c12 (racemic) [Example 32, (racemic)-6-(1-(4-(Trifluoromethoxy)benzyl)-1H-indazole-7-carboxamido)spiro[3.3]heptane-2-carboxylic acid] | < 25 | < 1
7 | O=C(NC1CC2(C1)CC(C(=O)O)C2)c1cccc2cnn(Cc3ccc(-c4ccccc4)cc3)c12 (racemic) [Example 33, (racemic)-6-(1-([1,1′-biphenyl]-4-ylmethyl)-1H-indazole-7-carboxamido)spiro[3.3]heptane-2-carboxylic acid] | < 25 | 3
8 | CCOc1cc(-c2ccc(Cn3ccc4c(F)ccc(C(=O)NC5CC6(C5)CC(C(=O)O)C6)c43)cc2)ccn1 (racemic) [Example 36, (Racemic)-6-(1-(4-(2-ethoxypyridin-4-yl)benzyl)-4-fluoro-1H-indole-7-carboxamido)spiro[3.3]heptane-2-carboxylic acid] | 72 | < 1
9 | COc1ccc(-c2ccc(Cn3ccc4c(F)ccc(C(=O)NC5CC6(C5)CC(C(=O)O)C6)c43)cc2)cc1Cl (stereo not shown) [Example 25, (Sa)-6-(1-((3′-Chloro-4′-methoxy-[1,1′-biphenyl]-4-yl)methyl)-4-fluoro-1H-indole-7-carboxamido)spiro[3.3]heptane-2-carboxylic acid] | < 25 | < 1
10 | [2H]C([2H])([2H])Oc1cccc(-c2ccc(Cn3ccc4c(F)ccc(C(=O)NC5CC6(C5)CC(C(=O)O)C6)c43)cc2)c1 (stereo not shown) [Example 52, (Sa)-6-(4-fluoro-1-((3’-methoxy-d3-[1,1′-biphenyl]-4-yl)methy1)-1H-indole-7-carboxamido)spiro[3.3]heptane-2-carboxylic acid] | < 25 | < 1
11 | CCOc1cccc(-c2ccc(Cn3ccc4c(F)ccc(C(=O)NC5CC6(C5)CC(C(=O)O)C6)c43)cc2)c1 (stereo not shown) [Example 54, (Sa)-6-(1-((3’-ethoxy-[1,1′-biphenyl]-4-yl)methyl)-4-fluoro-1H-indole-7-carboxamido)spiro[3.3]heptane-2-carboxylic acid] | 43 | < 1
12 | CCOc1cccc(-c2ccc(Cn3ccc4c(F)ccc(C(=O)NC5CC6(C5)CC(C(=O)O)C6)c43)cc2)n1 (stereo not shown) [Example 56, (Sa)-6-(1-(4-(6-Ethoxypyridin-2-yl)benzyl)-4-fluoro-1H-indole-7-carboxamido)spiro[3.3]heptane-2-carboxylic acid] | 76 | < 1
13 | O=C(NC1CC2(C1)CC(C(=O)O)C2)c1ccc(F)c2ccn(Cc3ccc(-c4ccccc4)c(F)c3)c12 (stereo not shown) [Example 65, (Sa)-6-(4-Fluoro-1-((2-fluoro-[1,1′-biphenyl]-4-yl)methyl)-1H-indole-7-carboxamido)spiro[3.3]heptane-2-carboxylic acid] | 43 | 3
14 | O=C(NC1CC2(C1)CC(C(=O)O)C2)c1ccc(F)c2ccn(Cc3ccc(-c4ccccc4)cc3F)c12 (stereo not shown) [Example 66, (Sa)-6-(4-Fluoro-1-((3-fluoro-[1,1′-biphenyl]-4-yl)methyl)-1H-indole-7-carboxamido)spiro[3.3]heptane-2-carboxylic acid] | < 25 | < 1

The next lines start with the values.

Row | IC50 (EP2) [nM] | IC50 (EP4) [nM] | Compound
15 | 81 | 8.9 | CNC(=O)c1cc(-c2ccc(Cn3ncc4c(Cl)ccc(C(=O)NC5CC6(C5)CC(F)(C(=O)O)C6)c43)cc2)ccn1 (racemic) [Example 102, (racemic)-6-(4-chloro-1-(4-(2-(methylcarbamoyl)pyridin-4-yl)benzyl)-1H-indazole-7-carboxamido)-2-fluorospiro[3.3]heptane-2-carboxylic acid]
16 | 33 | < 1 | O=C(O)CC1CC2(C1)CC(NC(=O)c1cc(F)cc3cnn(Cc4ccc(-c5ccccc5)cc4)c13)C2 (racemic) [Example 107, (racemic)-2-(6-(1-([1,1′-biphenyl]-4-ylmethyl)-5-fluoro-1H-indazole-7-carboxamido)spiro[3.3]heptan-2-yl)acetic acid]
17 | < 25 | 1.8 | CC(c1ccc(-c2ccccc2)cc1)n1ncc2cccc(C(=O)NC3CC4(C3)CC(C(=O)O)C4)c21 (racemic) [Example 112, (Sa)-6-(1-((racemic)-1-([1,1′-Biphenyl]-4-yl)-ethyl)-1H-indazole-7-carboxamido)spiro[3.3]heptane-2-carboxylic acid]
18 | < 25 | 6.6 | CC(c1ccc(-c2ccccc2)cc1)n1ncc2c(Cl)ccc(C(=O)NC3CC4(C3)CC(C(=O)O)C4)c21 (racemic) [Example 121, (Sa)-6-(1-((racemic)-1-([1,1′-biphenyl]-4-yl)-ethyl)-4-chloro-1H-indazole-7-carboxamido)spiro[3.3]heptane-2-carboxylic acid]
19 | 65 | < 1 | CCOc1cccc(-c2ccc(C(C)n3ncc4cccc(C(=O)NC5CC6(C5)CC(C(=O)O)C6)c43)cc2)n1 (racemic) [Example 133, (Sa)-6-(1-((racemic)-1-(4-(6-Ethoxypyridin-2-yl)phenyl)-ethyl)-1H-indazole-7-carboxamido)spiro[3.3]heptane-2-carboxylic acid]
20 | 26 | 3.9 | [2H]C([2H])([2H])C([2H])(c1ccc(-c2ccccc2)cc1)n1ncc2c(Cl)ccc(C(=O)NC3CC4(C3)CC(C(=O)O)C4)c21 (racemic) [Example 166, (Sa)-6-(1-((racemic)-1-([1,1′-Biphenyl]-4-yl)ethyl-1,2,2,2-d4)-4-chloro-1H-indazole-7-carboxamido)spiro[3.3]heptane-2-carboxylic acid]
21 | 28 | 1.2 | [2H]C([2H])([2H])C([2H])(c1ccc(-c2ccccc2)cc1)n1ncc2cccc(C(=O)NC3CC4(C3)CC(C(=O)O)C4)c21 (racemic) [Example 168, (Sa)-6-(1-((racemic)-1-([1,1′-Biphenyl]-4-yl)ethyl-1,2,2,2-d4)-1H-indazole-7-carboxamido)spiro[3.3]heptane-2-carboxylic acid]
22 | < 25 | < 1 | CC(c1ccc(-c2ccccc2)cc1)n1ncc2c(Cl)ccc(C(=O)NC3CC4(C3)CC(C(=O)O)C4)c21 (single isomer, unassigned) [Example 130, (Sa)-6-(1-((R) or (S)-1-([1,1′-biphenyl]-4-yl)-ethyl)-4-chloro-1H-indazole-7-carboxamido)spiro[3.3]heptane-2-carboxylic acid]
23 | 64 | 3.2 | COc1ccc2cc(-c3ccc(Cn4ccc5c(F)ccc(C(=O)NC6CC7(CC(CC(=O)O)C7)C6)c54)cc3)ccc2n1 (single isomer, unassigned) [Example 137, (Sa)-2-(6-(4-Fluoro-1-(4-(2-methoxyquinolin-6-yl)benzyl)-1H-indole-7-carboxamido)spiro[3.3]heptan-2-yl)acetic acid]
24 | < 25 | < 1 | COc1ccc2cc(-c3ccc(Cn4ccc5c(F)ccc(C(=O)NC6CC7(CC(CC(=O)O)C7)C6)c54)cc3)ccc2n1 (single isomer, unassigned) [Example 140, (Ra)-2-(6-(4-Fluoro-1-(4-(2-methoxyquinolin-6-yl)benzyl)-1H-indole-7-carboxamido)spiro[3.3]heptan-2-yl)acetic acid]
25 | 41 | 3.5 | [2H]C([2H])([2H])C([2H])(c1ccc(-c2ccccc2)cc1)n1ncc2c(Cl)ccc(C(=O)NC3CC4(C3)CC(C(=O)O)C4)c21 (single isomer, unassigned) [Example 167, (Sa)-6-(1-((R) or (S)-1-([1,1′-Biphenyl]-4-yl)ethyl-1,2,2,2-d4)-4-chloro-1H-indazole-7-carboxamido)spiro[3.3]heptane-2-carboxylic acid]
26 | 63 | 1.5 | [2H]C([2H])([2H])C([2H])(c1ccc(-c2ccccc2)cc1)n1ncc2cccc(C(=O)NC3CC4(C3)CC(C(=O)O)C4)c21 (single isomer, unassigned) [Example 169, (Sa)-6-(1-((R) or (S)-1-([1,1′-Biphenyl]-4-yl)ethyl-1,2,2,2-d4)-1H-indazole-7-carboxamido)spiro[3.3]heptane-2-carboxylic acid]
